This note sets out measurements from patent US12552825B2 (Zikani Therapeutics, Inc., priority 2019, dated 2026).

Holding throughout (format): cell-based
The subject of one assay is K. pneumoniae MP-546. Put plainly: MIC determination by CLSI broth dilution, K. pneumoniae MP-546. The settings on record: Klebsiella pneumoniae, MP546, CLSI broth dilution; strain MP-546.
The next assay relates to S. aureus MP-12. Put plainly: microbe, parasite or virus in culture. The settings on record: Staphylococcus aureus, MP12, read-out: MIC S. aureus MP-12.
A further assay deals with A. baumannii MP-15. Kind of assay: MIC determination by CLSI broth dilution, A. baumannii MP-15. The settings on record: Acinetobacter baumannii, MP15, strain MP-15, read-out: MIC A. baumanii MP-15.
Another assay concerns E. coli MP-4. Put plainly: MIC determination by CLSI broth dilution, E. coli MP-4. The settings on record: Escherichia coli, MP4, CLSI broth dilution; strain MP-4. In general terms: Broth dilution looks for growth in wells or tubes with falling amounts of substance.
The next assay concerns P. aeruginosa MP-3. Put plainly: MIC determination by CLSI broth dilution, P. aeruginosa MP-3. The settings on record: Pseudomonas aeruginosa, MP3, strain MP-3.

Converted amounts (≈) assume the structure as drawn. Some results are limits rather than exact numbers.

As for `CCCN1CCC(C[C@@H]2N(C)C[C@H](C)C[C@@](C)(OC)[C@H](O[C@@H]3O[C@H](C)C[C@H](N(C)C)[C@H]3O)[C@@H](C)C(=O)C(C)(C)C(=O)OC2(C)C)CC1` [Compound 48], the MIC against K. pneumoniae MP-546 is 4 to 32 µg/mL (≈ 5.99 to 47.9 µM); with S. aureus MP-12, over 32 µg/mL; in the assay with A. baumannii MP-15 it was over 32 µg/mL; against E. coli MP-4 it was under 4 µg/mL; in the assay on P. aeruginosa MP-3, over 32 µg/mL.

`CO[C@]1(C)C[C@@H](C)CN(C)[C@@H](C(=O)N2CCNCC2)[C@H](C)OC(=O)C(C)(C)C(=O)[C@H](C)[C@H]1O[C@@H]1O[C@H](C)C[C@H](N(C)C)[C@H]1O` [Compound 136, (2S,3R,6R,8R,9R,10R)-9-(((2S,3R,4S,6R)-4-(dimethylamino)-3-hydroxy-6-methyltetrahydro-2H-pyran-2-yl)oxy)-8-methoxy-2,4,6,8,10,12,12-heptamethyl-3-(piperazine-1-carbonyl)-1-oxa-4-azacyclotridecane-11,13-dione]: the MIC in the assay on K. pneumoniae MP-546, in the assay with S. aureus MP-12, with A. baumannii MP-15, against E. coli MP-4 and against P. aeruginosa MP-3 was over 32 µg/mL in each case.

With `CCN(CC)CCC[C@H]1COC(=O)C(C)(C)C(=O)[C@H](C)[C@@H](O[C@@H]2O[C@H](C)C[C@H](N(C)C)[C@H]2O)[C@](C)(OC)C[C@@H](C)CN1C` [Compound 19, (3S,6R,8R,9R,10R)-3-(3-(diethylamino)propyl)-9-(((2S,3R,4S,6R)-4-(dimethylamino)-3-hydroxy-6-methyltetrahydro-2H-pyran-2-yl)oxy)-8-methoxy-4,6,8,10,12,12-hexamethyl-1-oxa-4-azacyclotridecane-11,13-dione], the MIC is under 4 µg/mL against K. pneumoniae MP-546; 4 to 32 µg/mL (≈ 6.52 to 52.1 µM) with S. aureus MP-12; over 32 µg/mL in the assay with A. baumannii MP-15; under 4 µg/mL with E. coli MP-4; over 32 µg/mL with P. aeruginosa MP-3.

`CCC(=O)N1CCN(C[C@H]2[C@H](C)OC(=O)C(C)(C)C(=O)[C@H](C)[C@@H](O[C@@H]3O[C@H](C)C[C@H](N(C)C)[C@H]3O)[C@](C)(OC)C[C@@H](C)CN2C)CC1` [Compound 133, (2S,3S,6R,8R,9R,10R)-9-(((2S,3R,4S,6R)-4-(dimethylamino)-3-hydroxy-6-methyltetrahydro-2H-pyran-2-yl)oxy)-8-methoxy-2,4,6,8,10,12,12-heptamethyl-3-((4-propionylpiperazin-1-yl)methyl)-1-oxa-4-azacyclotridecane-11,13-dione]: the MIC in the assay with K. pneumoniae MP-546 was over 32 µg/mL; in the assay with S. aureus MP-12, 4 to 32 µg/mL (≈ 5.98 to 47.8 µM); in the assay with A. baumannii MP-15 it was over 32 µg/mL; against E. coli MP-4, over 32 µg/mL; with P. aeruginosa MP-3, over 32 µg/mL.

As for `CO[C@]1(C)C[C@@H](C)CN(C)[C@H](CC2CCN(C(C)C)CC2)C(C)(C)OC(=O)C(C)(C)C(=O)[C@H](C)[C@H]1O[C@@H]1O[C@H](C)C[C@H](N(C)C)[C@H]1O` [Compound 47], the MIC is 4 to 32 µg/mL (≈ 5.99 to 47.9 µM) against K. pneumoniae MP-546; 4 to 32 µg/mL (≈ 5.99 to 47.9 µM) in the assay with S. aureus MP-12; over 32 µg/mL with A. baumannii MP-15; under 4 µg/mL against E. coli MP-4; over 32 µg/mL against P. aeruginosa MP-3.

Turning to `CO[C@]1(C)C[C@@H](C)CN(C)[C@@H](CC2CCN(CC(C)(C)C)CC2)C(C)(C)OC(=O)C(C)(C)C(=O)[C@H](C)[C@H]1O[C@@H]1O[C@H](C)C[C@H](N(C)C)[C@H]1O` [Compound 37], the MIC against K. pneumoniae MP-546 was over 32 µg/mL; in the assay with S. aureus MP-12, over 32 µg/mL; in the assay on A. baumannii MP-15, over 32 µg/mL; against E. coli MP-4, 4 to 32 µg/mL (≈ 5.75 to 46 µM); against P. aeruginosa MP-3, over 32 µg/mL.

In the case of `CO[C@]1(C)C[C@@H](C)CN(C)[C@H](CC2CCN(C(=O)C3CC3)CC2)COC(=O)C(C)(C)C(=O)[C@H](C)[C@H]1O[C@@H]1O[C@H](C)C[C@H](N(C)C)[C@H]1O` [Compound 45], the MIC was 4 to 32 µg/mL (≈ 6.01 to 48.1 µM) with K. pneumoniae MP-546; 4 to 32 µg/mL (≈ 6.01 to 48.1 µM) in the assay on S. aureus MP-12; over 32 µg/mL in the assay with A. baumannii MP-15; 4 to 32 µg/mL (≈ 6.01 to 48.1 µM) in the assay on E. coli MP-4; over 32 µg/mL in the assay on P. aeruginosa MP-3.

For the compound `CO[C@]1(C)C[C@@H](C)CN(C)[C@H](CC2CCN(CC[C@@H](C)CCC=C(C)C)CC2)[C@@H](C)OC(=O)C(C)(C)C(=O)[C@H](C)[C@H]1O[C@@H]1O[C@H](C)C[C@H](N(C)C)[C@H]1O` [Compound 40], the MIC in the assay with K. pneumoniae MP-546 is 4 to 32 µg/mL (≈ 5.33 to 42.7 µM); in the assay with S. aureus MP-12 it was 4 to 32 µg/mL (≈ 5.33 to 42.7 µM); in the assay on A. baumannii MP-15, 4 to 32 µg/mL (≈ 5.33 to 42.7 µM); in the assay on E. coli MP-4, under 4 µg/mL; against P. aeruginosa MP-3 it was over 32 µg/mL.

Regarding `CO[C@]1(C)C[C@@H](C)CN(C)[C@@H](CN2CCN(S(=O)(=O)N(C)C)CC2)[C@H](C)OC(=O)C(C)(C)C(=O)[C@H](C)[C@H]1O[C@@H]1O[C@H](C)C[C@H](N(C)C)[C@H]1O` [Compound 142, 4-(((2S,3S,6R,8R,9R,10R)-9-(((2S,3R,4S,6R)-4-(dimethylamino)-3-hydroxy-6-methyltetrahydro-2H-pyran-2-yl)oxy)-8-methoxy-2,4,6,8,10,12,12-heptamethyl-11,13-dioxo-1-oxa-4-azacyclotridecan-3-yl)methyl)-N,N-dimethylpiperazine-1-sulfonamide], the MIC is over 32 µg/mL with K. pneumoniae MP-546; 4 to 32 µg/mL (≈ 5.56 to 44.4 µM) in the assay with S. aureus MP-12; over 32 µg/mL with A. baumannii MP-15; over 32 µg/mL against E. coli MP-4; over 32 µg/mL with P. aeruginosa MP-3.

For the compound `CCCN1CCC(C[C@@H]2COC(=O)C(C)(C)C(=O)[C@H](C)[C@@H](O[C@@H]3O[C@H](C)C[C@H](N(C)C)[C@H]3O)[C@](C)(OC)C[C@@H](C)CN2C)CC1` [Compound 42], the MIC is under 4 µg/mL in the assay with K. pneumoniae MP-546; 4 to 32 µg/mL (≈ 6.25 to 50 µM) in the assay with S. aureus MP-12; over 32 µg/mL in the assay with A. baumannii MP-15; under 4 µg/mL against E. coli MP-4; over 32 µg/mL against P. aeruginosa MP-3.

Turning to `CO[C@]1(C)C[C@@H](C)CN(C)[C@@H](C(=O)N2CCN(CC(F)(F)F)CC2)[C@H](C)OC(=O)C(C)(C)C(=O)[C@H](C)[C@H]1O[C@@H]1O[C@H](C)C[C@H](N(C)C)[C@H]1O` [Compound 130, (2S,3R,6R,8R,9R,10R)-9-(((2S,3R,4S,6R)-4-(dimethylamino)-3-hydroxy-6-methyltetrahydro-2H-pyran-2-yl)oxy)-8-methoxy-2,4,6,8,10,12,12-heptamethyl-3-(4-(2,2,2-trifluoroethyl)piperazine-1-carbonyl)-1-oxa-4-azacyclotridecane-11,13-dione], the MIC against K. pneumoniae MP-546, in the assay on S. aureus MP-12, in the assay on A. baumannii MP-15, against E. coli MP-4 and against P. aeruginosa MP-3 was over 32 µg/mL in each case.

For the compound `CO[C@]1(C)C[C@@H](C)CN(C)[C@@H](C(=O)N2CCN(C(C)C)CC2)[C@H](C)OC(=O)C(C)(C)C(=O)[C@H](C)[C@H]1O[C@@H]1O[C@H](C)C[C@H](N(C)C)[C@H]1O` [Compound 91, (2S,3R,6R,8R,9R,10R)-9-(((2S,3R,4S,6R)-4-(dimethylamino)-3-hydroxy-6-methyltetrahydro-2H-pyran-2-yl)oxy)-3-(4-isopropylpiperazine-1-carbonyl)-8-methoxy-2,4,6,8,10,12,12-heptamethyl-1-oxa-4-azacyclotridecane-11,13-dione], the MIC in the assay with K. pneumoniae MP-546, with S. aureus MP-12, with A. baumannii MP-15, in the assay on E. coli MP-4 and against P. aeruginosa MP-3 was over 32 µg/mL throughout.

As to `CO[C@]1(C)C[C@@H](C)CN(C)[C@@H](CN2CCN(C(C)=O)CC2)[C@H](C)OC(=O)C(C)(C)C(=O)[C@H](C)[C@H]1O[C@@H]1O[C@H](C)C[C@H](N(C)C)[C@H]1O` [Compound 135, (2S,3S,6R,8R,9R,10R)-3-((4-acetylpiperazin-1-yl)methyl)-9-(((2S,3R,4S,6R)-4-(dimethylamino)-3-hydroxy-6-methyltetrahydro-2H-pyran-2-yl)oxy)-8-methoxy-2,4,6,8,10,12,12-heptamethyl-1-oxa-4-azacyclotridecane-11,13-dione], the MIC with K. pneumoniae MP-546 was over 32 µg/mL; in the assay with S. aureus MP-12, 4 to 32 µg/mL (≈ 6.11 to 48.9 µM); in the assay with A. baumannii MP-15 it was over 32 µg/mL; in the assay on E. coli MP-4, over 32 µg/mL; in the assay with P. aeruginosa MP-3 it was over 32 µg/mL.

Turning to `CO[C@]1(C)C[C@@H](C)CN(C)[C@@H](CN2CCN(C(=O)C(C)(C)C)CC2)[C@H](C)OC(=O)C(C)(C)C(=O)[C@H](C)[C@H]1O[C@@H]1O[C@H](C)C[C@H](N(C)C)[C@H]1O` [Compound 114, (2S,3S,6R,8R,9R,10R)-9-(((2S,3R,4S,6R)-4-(dimethylamino)-3-hydroxy-6-methyltetrahydro-2H-pyran-2-yl)oxy)-8-methoxy-2,4,6,8,10,12,12-heptamethyl-3-((4-pivaloylpiperazin-1-yl)methyl)-1-oxa-4-azacyclotridecane-11,13-dione], the MIC in the assay with K. pneumoniae MP-546 is over 32 µg/mL; with S. aureus MP-12, 4 to 32 µg/mL (≈ 5.74 to 45.9 µM); with A. baumannii MP-15, over 32 µg/mL; against E. coli MP-4, over 32 µg/mL; with P. aeruginosa MP-3, over 32 µg/mL.

In the case of `CO[C@]1(C)C[C@@H](C)CN(C)[C@@H](CCCN2CCCCC2)COC(=O)C(C)(C)C(=O)[C@H](C)[C@H]1O[C@@H]1O[C@H](C)C[C@H](N(C)C)[C@H]1O` [Compound 83, (3S,6R,8R,9R,10R)-9-(((2S,3R,4S,6R)-4-(dimethylamino)-3-hydroxy-6-methyltetrahydro-2H-pyran-2-yl)oxy)-8-methoxy-4,6,8,10,12,12-hexamethyl-3-(3-(piperidin-1-yl)propyl)-1-oxa-4-azacyclotridecane-11,13-dione], the MIC is under 4 µg/mL against K. pneumoniae MP-546; 4 to 32 µg/mL (≈ 6.39 to 51.1 µM) in the assay with S. aureus MP-12; over 32 µg/mL in the assay on A. baumannii MP-15; under 4 µg/mL in the assay with E. coli MP-4; over 32 µg/mL in the assay on P. aeruginosa MP-3.

With `CO[C@]1(C)C[C@@H](C)CN(C)[C@@H](CN2CCN(S(=O)(=O)c3ccc(C)cc3)CC2)[C@H](C)OC(=O)C(C)(C)C(=O)[C@H](C)[C@H]1O[C@@H]1O[C@H](C)C[C@H](N(C)C)[C@H]1O` [Compound 139, (2S,3S,6R,8R,9R,10R)-9-(((2S,3R,4S,6R)-4-(dimethylamino)-3-hydroxy-6-methyltetrahydro-2H-pyran-2-yl)oxy)-8-methoxy-2,4,6,8,10,12,12-heptamethyl-3-((4-tosylpiperazin-1-yl)methyl)-1-oxa-4-azacyclotridecane-11,13-dione], the MIC against K. pneumoniae MP-546 was over 32 µg/mL; in the assay with S. aureus MP-12, 4 to 32 µg/mL (≈ 5.21 to 41.7 µM); with A. baumannii MP-15, over 32 µg/mL; against E. coli MP-4 it was over 32 µg/mL; against P. aeruginosa MP-3 it was over 32 µg/mL.
